Assay results taken from patent US10383843B2, “Use of total coumarins of cnidium fruit in preparing medicaments for treating psoriasis” (priority 2013, dated 2019).

Experiments:
vaginal epithelial cells = assay: Effect on mitosis of vaginal epithelial cells in mice; format: in vivo; details: 15 mg/kg by gavage, once a day for 3 days; mitoses per 100 fundus cells
Description: 60 female NIH mice of 27 g±2 g were selected. After being intraperitoneally injected with diethylstilbesrolum for 3 days continuously, 0.2 mg/day for each animal, all the mice were left in estrum interval. From the 4th day, the mice were randomly divided into four groups, 15 mice each. The mice of the four groups were administrated for three days by gavage with 150 mg/kg of total coumarins, 75 mg/kg of total coumarins, 15 mg/kg of anthralin and 15 ml/kg of physiological saline, respectively, once one day. The last administration was carried out at 8:00 am in order to avoid the interference of various administration rhythms between day and night in the mice to the test result. At 9:00 am, 2 mg/kg of colchicine was injected to the mice to make the mitosis of vaginal epithelial cells stopped at the middle cycle of M phase.
The mice were killed at 2 pm. A sample from the vagina of the animal was taken out and fixed in a 10% formaldehyde solution. A slice of tissue was observed under an optical microscope. The number of mitosis per 300 fundus cells was counted to obtain an average number of mitosis among 100 fundus cells, which was regarded as the index of mitosis of vaginal epithelial cells.

[1] = system: passive cutaneous anaphylaxis (PCA) of rats; assay: Inhibition of passive cutaneous anaphylaxis (PCA) of rats; format: in vivo; details: 15 mg/kg by gavage, 3 days
Description: Hair on the back of 40 SD rats, 180 g±10 was shaved off. 0.2 ml of a diluted rat-antiserum (1:10) was hypodermically injected into each rat through two places on the back, 0.1 ml for each place. After being injected, the rats were di vided randomly into four groups, which were administered by gavage with 75 mg/kg of total coumarins, 150 mg/kg of total coumarins, 15 mg/kg of anthralin and 15 ml/kg of distilled water for 3 days, once per day. After the injection with the rat-antiserum 48 hours, 1 ml of 0.5% evans blue, […], was intravenously injected into the rats through the caudal vein. The rats were killed in 20 minutes. A piece of skin with blue speckles was taken out from the back, and immersed in 5 ml solution of acetone/physiological saline (acetone:physiological saline=7-3 v/v) for 24 hs. After centrifugation; the supernatant was taken for measuring the optical density (OD) at 590 nm. Inhibition rate was obtained in accordance with the following equation. […] Inhibition (%)=[OD(control)−OD(drug)]×100%/OD(control)

O=C1c2c(O)cccc2Cc2cccc(O)c21 [Anthralin, anthralin]
Index of Mitosis % (vaginal epithelial cells): 13.4 ± 2.1 % | OD ([1]; OD at 590 nm of evans blue skin extract): 0.043 ± 0.25 | inhibition at 15 mg/kg ([1]; Rattus norvegicus, po, 72 h): 51.7%
